Reference: patent publication US20120172386A1, “Combinations Comprising a VEGF Receptor Inhibitor” (NOVARTIS AG, priority 2005, published 2012)

How the values were obtained:
[1] = Percutaneous penetration/permeation in static Franz-type diffusion cells with split-thickness human cadaver skin; assay type: in vitro ADME; conditions: solution b (1% in propylene glycol/oleyl alcohol 9:1); for Skin concentration: 48 hours, stratum corneum removed
Experimental: Frozen human dorsal cadaver skin (Caucasian; back skin) was obtained from the National Disease Research Interchange, Philadelphia, USA. Skin from three different donors was used;
Thawed skin samples were dermatomed to 0.7 mm with an Aesculap dermatome to obtain “split-thickness” skin.
Percutaneous penetration was studied in vitro by means of static Franz-type diffusion cells with phosphate buffered saline/fetal calf serum 2:1 as receptor fluid at 32° in triplicates for 48 hours. The compounds were applied as 1% solutions (300 μl each) in propylene glycol (solution a) or in propylene glycol/oleyl alcohol 9:1 (solution b). Samples of 100 μl were taken 5 to 7 times and replaced by fresh receptor fluid as described previously (Schmook, et al., Skin Pharmacol. 1993, 6:116-124).
Drug analysis was performed with specimens of the exposed skin (at the end of the 48 hours experiment), from which the stratum corneum had been removed by 20 strippings with an adhesive tape. The weighed skin samples were homogenized in 0.2 M ammonium phosphate buffer (pH 7.0). The homogenates were extracted with ethyl acetate and processed as described (Schmook, et al 1993).

VEGF-R2 (KDR) = VEGF-R2 (KDR) (Homo sapiens, UniProt P35968); assay: Inhibition of the tyrosine kinase activity of VEGF-R2 (KDR); assay type: biochemical
VEGF-R2 (KDR), sequence (P35968 20-1356, species assumed): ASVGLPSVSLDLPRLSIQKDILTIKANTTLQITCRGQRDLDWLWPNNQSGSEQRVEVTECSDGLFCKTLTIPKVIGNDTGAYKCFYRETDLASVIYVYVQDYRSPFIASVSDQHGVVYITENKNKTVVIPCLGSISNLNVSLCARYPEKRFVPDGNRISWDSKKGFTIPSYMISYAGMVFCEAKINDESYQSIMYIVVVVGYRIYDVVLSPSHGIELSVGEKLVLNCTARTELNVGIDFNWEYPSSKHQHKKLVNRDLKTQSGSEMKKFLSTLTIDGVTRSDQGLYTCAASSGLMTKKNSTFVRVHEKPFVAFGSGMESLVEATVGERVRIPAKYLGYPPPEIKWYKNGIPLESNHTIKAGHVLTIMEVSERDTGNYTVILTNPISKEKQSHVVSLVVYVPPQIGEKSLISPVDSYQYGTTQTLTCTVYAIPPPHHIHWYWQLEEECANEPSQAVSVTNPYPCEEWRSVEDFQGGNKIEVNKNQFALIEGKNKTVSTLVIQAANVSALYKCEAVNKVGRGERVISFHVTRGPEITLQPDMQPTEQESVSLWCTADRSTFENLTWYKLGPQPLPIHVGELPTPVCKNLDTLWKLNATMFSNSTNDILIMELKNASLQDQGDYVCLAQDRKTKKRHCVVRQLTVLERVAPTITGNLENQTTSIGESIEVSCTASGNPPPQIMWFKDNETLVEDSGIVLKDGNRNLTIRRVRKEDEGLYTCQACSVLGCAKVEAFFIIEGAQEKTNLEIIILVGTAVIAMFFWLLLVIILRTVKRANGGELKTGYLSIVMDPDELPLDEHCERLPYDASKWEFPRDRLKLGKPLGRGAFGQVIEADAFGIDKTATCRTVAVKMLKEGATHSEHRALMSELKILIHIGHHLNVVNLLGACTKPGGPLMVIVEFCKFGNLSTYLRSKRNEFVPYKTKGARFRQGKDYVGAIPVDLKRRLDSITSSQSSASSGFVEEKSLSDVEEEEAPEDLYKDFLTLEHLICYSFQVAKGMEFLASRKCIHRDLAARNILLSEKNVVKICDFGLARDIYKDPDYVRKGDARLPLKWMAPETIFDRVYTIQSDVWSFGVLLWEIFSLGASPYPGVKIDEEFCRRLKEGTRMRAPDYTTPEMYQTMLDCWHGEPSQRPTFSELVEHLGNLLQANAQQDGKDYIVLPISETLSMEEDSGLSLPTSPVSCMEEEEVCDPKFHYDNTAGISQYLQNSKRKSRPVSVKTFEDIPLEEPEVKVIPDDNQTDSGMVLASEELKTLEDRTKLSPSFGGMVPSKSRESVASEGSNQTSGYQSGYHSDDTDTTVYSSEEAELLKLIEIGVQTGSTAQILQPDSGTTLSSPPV
Experimental: Inhibition of the Tyrosine Kinase Activity of VEGF-R2 (KDR)
The inhibition test is carried out as described above.

| Compound | melting point | other results |
| --- | --- | --- |
| Nc1cc(Oc2ccc3c(C(=O)Nc4ccc(F)c(C(F)(F)F)c4)cccc3c2)ncn1 | 224 to 225 °C |  |
| Nc1nccc(Oc2ccc3c(C(=O)Nc4ccc(F)c(C(F)(F)F)c4)cccc3c2)n1 |  | Permeation rate ([1]; batch of skin 3): 19 ± 3 ng/mL/h; Skin concentration ([1]; batch of skin 3): 46 ± 13 µg/g |
| CCN1CCN(Cc2ccc(-c3cc4c(N[C@H](C)c5ccccc5)ncnc4[nH]3)cc2)CC1 |  | Permeation rate ([1]; batch of skin 1): 182 ± 68 ng/mL/h; Skin concentration ([1]; batch of skin 1): 35 ± 12 µg/g; Permeation rate ([1]; batch of skin 2): 189 ± 43 ng/mL/h; Skin concentration ([1]; batch of skin 2): 72 ± 24 µg/g |
| Clc1ccc(Nc2nnc(Cc3ccncc3)c3ccccc23)cc1 |  | Permeation rate ([1]; batch of skin 1): 286 ± 90 ng/mL/h; Skin concentration ([1]; batch of skin 1): 10.4 ± 2.0 µg/g |
| Nc1nccc(Oc2ccc3c(c2)OCCN3C(=O)Nc2ccc(C(F)(F)F)c(C(F)(F)F)c2)n1 [12a)] |  | IC50 (VEGF-R2 (KDR)): 52 nM |
| Nc1nccc(Oc2ccc3c(c2)OCCN3C(=O)Nc2ccc(Cl)c(C(F)(F)F)c2)n1 [12b)] |  | IC50 (VEGF-R2 (KDR)): 10 nM |
| Nc1nccc(Oc2ccc3c(c2)OCCN3C(=O)Nc2ccc(F)c(C(F)(F)F)c2)n1 [12d)] |  | IC50 (VEGF-R2 (KDR)): 73 nM |
| Nc1nc(Cl)cc(Oc2ccc3c(C(=O)Nc4cccc(C(F)(F)F)c4)cccc3c2)n1 [Example 13, 6-(2-Amino-6-chloro-pyrimidin-4-yloxy)-naphthalene-1-carboxylic acid (3-trifluoromethyl-phenyl)-amide] | 234 to 236 °C |  |
| COC(=O)Nc1nccc(Oc2ccc3c(C(=O)Nc4cccc(C(F)(F)F)c4)cccc3c2)n1 [Example 19, 6-(2-Methoxycarbonylamino-pyrimidin-4-yloxy)-naphthalene-1-carboxylic acid (3-trifluoromethyl-phenyl)-amide] | 199 to 200 °C |  |
| Nc1cc(Oc2ccc3c(C(=O)Nc4cccc(C(F)(F)F)c4)cccc3c2)ncn1 [Example 26, 6-(6-Amino-pyrimidin-4-yloxy)-naphthalene-1-carboxylic acid (3-trifluoromethyl-phenyl)-amide] | 243 to 244 °C |  |
| CNc1cc(Oc2ccc3c(C(=O)Nc4ccc(N5CCOCC5)c(C(F)(F)F)c4)cccc3c2)ncn1 [Example 40, 6-(6-Methylamino-pyrimidin-4-yloxy)-naphthalene-1-carboxylic acid (4-morpholin-4-yl-3-trifluoromethyl-phenyl)-amide] | 156 to 157 °C |  |
| N#Cc1cc(Oc2ccc3c(C(=O)Nc4cccc(C(F)(F)F)c4)cccc3c2)ncn1 [Example 43, 6-(6-Cyano-pyrimidin-4-yloxy)-naphthalene-1-carboxylic acid (3-trifluoromethyl-phenyl)-amide] | 167 °C |  |
| CC(C)NC(=O)c1cc(Oc2ccc3c(C(=O)Nc4cccc(C(F)(F)F)c4)cccc3c2)ncn1 [Example 51, 6-[5-(3-Trifluoromethyl-phenylcarbamoyl)-naphthalen-2-yloxy]-pyrimidine-4-carboxylic acid isopropylamide] | 205 to 208 °C |  |
| O=C(Nc1cccc(C(F)(F)F)c1)c1cccc2cc(Oc3cc(CCl)ncn3)ccc12 [Example 53, 6-(6-Chloromethyl-pyrimidin-4-yloxy)-naphthalene-1-carboxylic acid (3-trifluoromethyl-phenyl)-amide] | 178 to 181 °C |  |
| CNCc1cc(Oc2ccc3c(C(=O)Nc4cccc(C(F)(F)F)c4)cccc3c2)ncn1 [Example 54, 6-(6-Methylaminomethyl-pyrimidin-4-yloxy)-naphthalene-1-carboxylic acid (3-trifluoromethyl-phenyl)-amide] | 141 to 143 °C |  |
| CN(C)Cc1cc(Oc2ccc3c(C(=O)Nc4cccc(C(F)(F)F)c4)cccc3c2)ncn1 [Example 55, 6-(6-Dimethylaminomethyl-pyrimidin-4-yloxy)-naphthalene-1-carboxylic acid (3-trifluoromethyl-phenyl)-amide] | 180 to 181 °C |  |
| Nc1cc(Sc2ccc3c(C(=O)Nc4ccc(F)c(C(F)(F)F)c4)cccc3c2)ncn1 [Example 57, 6-(6-Amino-pyrimidin-4-ylsulfanyl)-naphthalene-1-carboxylic acid (4-fluoro-3-trifluoromethyl-phenyl)-amide] | 221 °C |  |

| Compound | melting point | other results |
| --- | --- | --- |
| Nc1cc(Sc2ccc3c(C(=O)Nc4cccc(C(F)(F)F)c4)cccc3c2)ncn1 [Example 58, 6-(6-Amino-pyrimidin-4-ylsulfanyl)-naphthalene-1-carboxylic acid (3-trifluoromethyl-phenyl)-amide] | 205 °C |  |
| Nc1cc(Sc2ccc3c(C(=O)Nc4cccc(OC(F)(F)F)c4)cccc3c2)ncn1 [Example 61, 6-(6-Amino-pyrimidin-4-ylsulfanyl)-naphthalene-1-carboxylic acid (3-trifluoromethoxy-phenyl)-amide] | 197 to 199 °C |  |
| CCCCOC(=O)c1cc(Oc2ccc3c(C(=O)Nc4cccc(C(F)(F)F)c4)cccc3c2)ccn1 [Example 64, 4-[5-(3-Trifluoromethyl-phenylcarbamoyl)-naphthalen-2-yloxy]-pyridine-2-carboxylic acid butyl ester] | 128 to 130 °C |  |
| CNC(=O)c1cc(Oc2ccc3c(C(=O)Nc4cccc(C(F)(F)F)c4)cccc3c2)ccn1 [Example 65, 4-[5-(3-Trifluoromethyl-phenylcarbamoyl)-naphthalen-2-yloxy]-pyridine-2-carboxylic acid methylamide] | 175 to 177 °C |  |
| NC(=O)c1cc(Oc2ccc3c(C(=O)Nc4cccc(C(F)(F)F)c4)cccc3c2)ccn1 [Example 66, 4-[5-(3-Trifluoromethyl-phenylcarbamoyl)-naphthalen-2-yloxy]-pyridine-2-carboxylic acid amide] | 117 to 120 °C |  |
| CN(C)CCNC(=O)c1cc(Oc2ccc3c(C(=O)Nc4cccc(C(F)(F)F)c4)cccc3c2)ccn1 [Example 67, 4-[5-(3-Trifluoromethyl-phenylcarbamoyl)-naphthalen-2-yloxy]-pyridine-2-carboxylic acid (2-dimethylamino-ethyl)-amide] | 80 to 82 °C |  |
| Nc1cc(Oc2ccc3c(C(=O)Nc4cccc(C(F)(F)F)c4)cccc3c2)ccn1 [Example 68, 6-(2-Amino-pyridin-4-yloxy)-naphthalene-1-carboxylic acid (3-trifluoromethyl-phenyl)-amide] | 222 to 224 °C |  |
| COC(=O)Nc1cc(Oc2ccc3c(C(=O)Nc4cccc(C(F)(F)F)c4)cccc3c2)ccn1 [Example 69, {4-[5-(3-Trifluoromethyl-phenylcarbamoyl)-naphthalen-2-yloxy]-pyridin-2-yl}-carbamic acid methyl ester] | 230 to 232 °C |  |
| Nc1nccc(CCc2ccc3c(C(=O)Nc4cccc(C(F)(F)F)c4)cccc3c2)n1 [Example 70, 6-[2-(2-Amino-pyrimidin-4-yl)-ethyl]-naphthalene-1-carboxylic acid (3-trifluoromethyl-phenyl)-amide] | 225 to 227 °C |  |
| Nc1cc(C#Cc2ccc3c(C(=O)Nc4cccc(C(F)(F)F)c4)cccc3c2)ncn1 [Example 71, 6-(6-Amino-pyrimidin-4-ylethynyl)-naphthalene-1-carboxylic acid (3-trifluoromethyl-phenyl)-amide] | 217 to 220 °C |  |
| CC(C)c1ccc(-n2nc(C(C)(C)C)cc2NC(=O)c2cncc3cc(Oc4cc(N)ncn4)ccc23)cc1 [Example 93, 7-(6-Amino-pyrimidin-4-yloxy)-isoquinoline-4-carboxylic acid [5-tert-butyl-2-(4-isopropyl-phenyl)-2H-pyrazol-3-yl]-amide] | 131 to 133 °C |  |
| CC(C)(C)c1cc(NC(=O)c2cncc3cc(Oc4cc(N)ncn4)ccc23)n(-c2ccc(F)cc2)n1 [Example 94, 7-(6-Amino-pyrimidin-4-yloxy)-isoquinoline-4-carboxylic acid [5-tert-butyl-2-(4-fluoro-phenyl)-2H-pyrazol-3-yl]-amide] | 124 to 126 °C |  |
| CNc1cc(Oc2ccc3c(C(=O)Nc4ccc(F)c(C(F)(F)F)c4)cncc3c2)ncn1 [Example 95, 7-(6-Methylamino-pyrimidin-4-yloxy)-isoquinoline-4-carboxylic acid (4-fluoro-3-trifluoromethyl-phenyl)-amide] | 255 to 257 °C |  |
| CNc1cc(Oc2ccc3c(C(=O)Nc4cccc(C(F)(F)F)c4)cncc3c2)ncn1 [Example 96, 7-(6-Methylamino-pyrimidin-4-yloxy)-isoquinoline-4-carboxylic acid (3-trifluoromethyl-phenyl)-amide] | 205 to 208 °C |  |
| Nc1nccc(Oc2ccc3c(C(=O)Nc4cccc(C(F)(F)F)c4)cccc3c2)n1 [drawing 76] |  | Permeation rate ([1]; batch of skin 2): 13 ± 3 ng/mL/h; Skin concentration ([1]; batch of skin 2): 44 ± 17 µg/g; Permeation rate ([1]; batch of skin 3): 8 ± 2 ng/mL/h; Skin concentration ([1]; batch of skin 3): 24 ± 6 µg/g |
| Nc1cc(Oc2ccc3c(C(=O)Nc4cccc(C(F)(F)F)c4)cccc3c2)ncn1 [drawing 77] |  | Permeation rate ([1]; batch of skin 3): 12 ± 4 ng/mL/h; Skin concentration ([1]; batch of skin 3): 34 ± 3 µg/g |
| Nc1cc(Oc2ccc3c(C(=O)Nc4ccc(F)c(C(F)(F)F)c4)cccc3c2)ncn1 [drawing 78] |  | Permeation rate ([1]; batch of skin 3): 22 ± 3 ng/mL/h; Skin concentration ([1]; batch of skin 3): 19 ± 7 µg/g |
